Key:
MOLT-4 cells = experiment: Cell viability assay, MTS, 48 h, MOLT-4; assay type: cell-based; conditions: Homo sapiens, MOLT-4, 48 h, 48 hours, read-out: IC50 (48 hours) MOLT-4
Protocol: (§1) Acute lymphoblastic leukemia cells (MOLT-4 and RS4; 11) or small cell lung cancer (NCI-H146 or simply H146) were incubated with increasing concentrations of Bcl-xL degraders for 48 h. Cell viability was measured by tetrazolium-based MTS assay.

RS4;11 cells = experiment: Cell viability assay, MTS, 48 h, RS4;11; assay type: cell-based; conditions: Homo sapiens, RS4-11, 48 h, 48 hours, read-out: IC50 (48 hours) RS4;11
Protocol: as §1

Compound	IC50 (MOLT-4 cells) [nM]	IC50 (RS4;11 cells) [nM]
Cc1ncsc1-c1ccc([C@H](C)NC(=O)[C@@H]2C[C@@H](O)CN2C(=O)[C@@H](NC(=O)COCCOCCOCCOCCOCC(=O)NCC2(C)CCC(c3ccc(Cl)cc3)=C(CN3CCN(c4ccc(C(=O)NS(=O)(=O)c5ccc(N[C@H](CCN6CCOCC6)CSc6ccccc6)c(S(=O)(=O)C(F)(F)F)c5)cc4)CC3)C2)C(C)(C)C)cc1 (stereo partly drawn) [degrader #10, N1-((4′-chloro-4-methyl-6-((4-(4-(((4-(((R)-4-morpholino-1-(phenylthio)butan-2-yl)amino)-3-((trifluoromethyl)sulfonyl)phenyl)sulfonyl)carbamoyl)phenyl)piperazin-1-yl)methyl)-2,3,4,5-tetrahydro-[1,1′-biphenyl]-4-yl)methyl)-N17-((S)-1-((2S,4R)-4-hydroxy-2-(((S)-1-(4-(4-methylthiazol-5-yl)phenyl)ethyl)carbamoyl)pyrrolidin-1-yl)-3,3-dimethyl-1-oxobutan-2-yl)-3,6,9,12,15-pentaoxaheptadecanediamide]	> 500	> 500
Cc1ncsc1-c1ccc([C@H](C)NC(=O)[C@@H]2C[C@@H](O)CN2C(=O)[C@@H](NC(=O)CCCCC#CC#CC2(C)CCC(c3ccc(Cl)cc3)=C(CN3CCN(c4ccc(C(=O)NS(=O)(=O)c5ccc(N[C@H](CCN6CCOCC6)CSc6ccccc6)c(S(=O)(=O)C(F)(F)F)c5)cc4)CC3)C2)C(C)(C)C)cc1 (stereo partly drawn) [degrader #11, (2S,4R)-1-((2S)-2-(9-(4′-chloro-4-methyl-6-((4-(4-(((4-(((R)-4-morpholino-1-(phenylthio)butan-2-yl)amino)-3-((trifluoromethyl)sulfonyl)phenyl)sulfonyl)carbamoyl)phenyl)piperazin-1-yl)methyl)-2,3,4,5-tetrahydro-[1,1′-biphenyl]-4-yl)nona-6,8-diynamido)-3,3-dimethylbutanoyl)-4-hydroxy-N—((S)-1-(4-(4-methylthiazol-5-yl)phenyl)ethyl)pyrrolidine-2-carboxamide]	> 500	> 500
Cc1ncsc1-c1ccc([C@H](C)NC(=O)[C@@H]2C[C@@H](O)CN2C(=O)[C@@H](NC(=O)CCCCCC#CC#CC2(C)CCC(c3ccc(Cl)cc3)=C(CN3CCN(c4ccc(C(=O)NS(=O)(=O)c5ccc(N[C@H](CCN6CCOCC6)CSc6ccccc6)c(S(=O)(=O)C(F)(F)F)c5)cc4)CC3)C2)C(C)(C)C)cc1 (stereo partly drawn) [degrader #12, (2S,4R)-1-((2S)-2-(10-(4′-chloro-4-methyl-6-((4-(4-(((4-(((R)-4-morpholino-1-(phenylthio)butan-2-yl)amino)-3-((trifluoromethyl)sulfonyl)phenyl)sulfonyl)carbamoyl)phenyl)piperazin-1-yl)methyl)-2,3,4,5-tetrahydro-[1,1′-biphenyl]-4-yl)deca-7,9-diynamido)-3,3-dimethylbutanoyl)-4-hydroxy-N—((S)-1-(4-(4-methylthiazol-5-yl)phenyl)ethyl)pyrrolidine-2-carboxamide]	> 500	> 500
Cc1ncsc1-c1ccc([C@H](C)NC(=O)[C@@H]2C[C@@H](O)CN2C(=O)[C@@H](NC(=O)CCCC(=O)N2CCN(CC3(C)CCC(c4ccc(Cl)cc4)=C(CN4CCN(c5ccc(C(=O)NS(=O)(=O)c6ccc(N[C@H](CCN7CCOCC7)CSc7ccccc7)c(S(=O)(=O)C(F)(F)F)c6)cc5)CC4)C3)CC2)C(C)(C)C)cc1 (stereo partly drawn) [degrader #14, (2S,4R)-1-((2S)-2-(5-(4-((4′-chloro-4-methyl-6-((4-(4-(((4-(((R)-4-morpholino-1-(phenylthio)butan-2-yl)amino)-3-((trifluoromethyl)sulfonyl)phenyl)sulfonyl)carbamoyl)phenyl)piperazin-1-yl)methyl)-2,3,4,5-tetrahydro-[1,1′-biphenyl]-4-yl)methyl)piperazin-1-yl)-5-oxopentanamido)-3,3-dimethylbutanoyl)-4-hydroxy-N—((S)-1-(4-(4-methylthiazol-5-yl)phenyl)ethyl)pyrrolidine-2-carboxamide]	150 to 500	50 to 150
Cc1ncsc1-c1ccc([C@H](C)NC(=O)[C@@H]2C[C@@H](O)CN2C(=O)[C@@H](NC(=O)CCCCC(=O)N2CCN(CC3(C)CCC(c4ccc(Cl)cc4)=C(CN4CCN(c5ccc(C(=O)NS(=O)(=O)c6ccc(N[C@H](CCN7CCOCC7)CSc7ccccc7)c(S(=O)(=O)C(F)(F)F)c6)cc5)CC4)C3)CC2)C(C)(C)C)cc1 (stereo partly drawn) [degrader #15, (2S,4R)-1-((2S)-2-(6-(4-((4′-chloro-4-methyl-6-((4-(4-(((4-(((R)-4-morpholino-1-(phenylthio)butan-2-yl)amino)-3-((trifluoromethyl)sulfonyl)phenyl)sulfonyl)carbamoyl)phenyl)piperazin-1-yl)methyl)-2,3,4,5-tetrahydro-[1,1′-biphenyl]-4-yl)methyl)piperazin-1-yl)-6-oxohexanamido)-3,3-dimethylbutanoyl)-4-hydroxy-N—((S)-1-(4-(4-methylthiazol-5-yl)phenyl)ethyl)pyrrolidine-2-carboxamide]	50 to 150	50 to 150
Cc1ncsc1-c1ccc([C@H](C)NC(=O)[C@@H]2C[C@@H](O)CN2C(=O)[C@@H](NC(=O)CCCCCC(=O)N2CCN(CC3(C)CCC(c4ccc(Cl)cc4)=C(CN4CCN(c5ccc(C(=O)NS(=O)(=O)c6ccc(N[C@H](CCN7CCOCC7)CSc7ccccc7)c(S(=O)(=O)C(F)(F)F)c6)cc5)CC4)C3)CC2)C(C)(C)C)cc1 (stereo partly drawn) [degrader #16, (2S,4R)-1-((2S)-2-(7-(4-((4′-chloro-4-methyl-6-((4-(4-(((4-(((R)-4-morpholino-1-(phenylthio)butan-2-yl)amino)-3-((trifluoromethyl)sulfonyl)phenyl)sulfonyl)carbamoyl)phenyl)piperazin-1-yl)methyl)-2,3,4,5-tetrahydro-[1,1′-biphenyl]-4-yl)methyl)piperazin-1-yl)-7-oxoheptanamido)-3,3-dimethylbutanoyl)-4-hydroxy-N—((S)-1-(4-(4-methylthiazol-5-yl)phenyl)ethyl)pyrrolidine-2-carboxamide]	< 50	< 50
Cc1ncsc1-c1ccc([C@H](C)NC(=O)[C@@H]2C[C@@H](O)CN2C(=O)[C@@H](NC(=O)CCCCCCC(=O)N2CCN(CC3(C)CCC(c4ccc(Cl)cc4)=C(CN4CCN(c5ccc(C(=O)NS(=O)(=O)c6ccc(N[C@H](CCN7CCOCC7)CSc7ccccc7)c(S(=O)(=O)C(F)(F)F)c6)cc5)CC4)C3)CC2)C(C)(C)C)cc1 (stereo partly drawn) [degrader #17, (2S,4R)-1-((2S)-2-(8-(4-((4′-chloro-4-methyl-6-((4-(4-(((4-(((R)-4-morpholino-1-(phenylthio)butan-2-yl)amino)-3-((trifluoromethyl)sulfonyl)phenyl)sulfonyl)carbamoyl)phenyl)piperazin-1-yl)methyl)-2,3,4,5-tetrahydro-[1,1′-biphenyl]-4-yl)methyl)piperazin-1-yl)-8-oxooctanamido)-3,3-dimethylbutanoyl)-4-hydroxy-N—((S)-1-(4-(4-methylthiazol-5-yl)phenyl)ethyl)pyrrolidine-2-carboxamide]	< 50	< 50
Cc1ncsc1-c1ccc([C@H](C)NC(=O)[C@@H]2C[C@@H](O)CN2C(=O)[C@@H](NC(=O)CCCCCCCC(=O)N2CCN(CC3(C)CCC(c4ccc(Cl)cc4)=C(CN4CCN(c5ccc(C(=O)NS(=O)(=O)c6ccc(N[C@H](CCN7CCOCC7)CSc7ccccc7)c(S(=O)(=O)C(F)(F)F)c6)cc5)CC4)C3)CC2)C(C)(C)C)cc1 (stereo partly drawn) [degrader #18, (2S,4R)-1-((2S)-2-(9-(4-((4′-chloro-4-methyl-6-((4-(4-(((4-(((R)-4-morpholino-1-(phenylthio)butan-2-yl)amino)-3-((trifluoromethyl)sulfonyl)phenyl)sulfonyl)carbamoyl)phenyl)piperazin-1-yl)methyl)-2,3,4,5-tetrahydro-[1,1′-biphenyl]-4-yl)methyl)piperazin-1-yl)-9-oxononanamido)-3,3-dimethylbutanoyl)-4-hydroxy-N—((S)-1-(4-(4-methylthiazol-5-yl)phenyl)ethyl)pyrrolidine-2-carboxamide]	< 50	< 50
Cc1ncsc1-c1ccc([C@H](C)NC(=O)[C@@H]2C[C@@H](O)CN2C(=O)[C@@H](NC(=O)CCCCCCCCC(=O)N2CCN(CC3(C)CCC(c4ccc(Cl)cc4)=C(CN4CCN(c5ccc(C(=O)NS(=O)(=O)c6ccc(N[C@H](CCN7CCOCC7)CSc7ccccc7)c(S(=O)(=O)C(F)(F)F)c6)cc5)CC4)C3)CC2)C(C)(C)C)cc1 (stereo partly drawn) [degrader #19, (2S,4R)-1-((2S)-2-(10-(4-((4′-chloro-4-methyl-6-((4-(4-(((4-(((R)-4-morpholino-1-(phenylthio)butan-2-yl)amino)-3-((trifluoromethyl)sulfonyl)phenyl)sulfonyl)carbamoyl)phenyl)piperazin-1-yl)methyl)-2,3,4,5-tetrahydro-[1,1′-biphenyl]-4-yl)methyl)piperazin-1-yl)-10-oxodecanamido)-3,3-dimethylbutanoyl)-4-hydroxy-N—((S)-1-(4-(4-methylthiazol-5-yl)phenyl)ethyl)pyrrolidine-2-carboxamide]	50 to 150	50 to 150
Cc1ncsc1-c1ccc([C@H](C)NC(=O)[C@@H]2C[C@@H](O)CN2C(=O)[C@@H](NC(=O)CCCCCCCCCC(=O)N2CCN(CC3(C)CCC(c4ccc(Cl)cc4)=C(CN4CCN(c5ccc(C(=O)NS(=O)(=O)c6ccc(N[C@H](CCN7CCOCC7)CSc7ccccc7)c(S(=O)(=O)C(F)(F)F)c6)cc5)CC4)C3)CC2)C(C)(C)C)cc1 (stereo partly drawn) [degrader #20, (2S,4R)-1-((2S)-2-(11-(4-((4′-chloro-4-methyl-6-((4-(4-(((4-(((R)-4-morpholino-1-(phenylthio)butan-2-yl)amino)-3-((trifluoromethyl)sulfonyl)phenyl)sulfonyl)carbamoyl)phenyl)piperazin-1-yl)methyl)-2,3,4,5-tetrahydro-[1,1′-biphenyl]-4-yl)methyl)piperazin-1-yl)-11-oxoundecanamido)-3,3-dimethylbutanoyl)-4-hydroxy-N—((S)-1-(4-(4-methylthiazol-5-yl)phenyl)ethyl)pyrrolidine-2-carboxamide]	150 to 500	150 to 500

From patent publication US20220169628A1 (University of Florida Research Foundation, Incorporated, priority 2019, published 2022)
